Data on 36 compounds can be found in US10023593B2, “ALK kinase inhibitor, and preparation method and uses thereof” (BEIJING PEARL BIOTECHNOLOGY LIMITED LIABILITY COMPANY, priority 2014, dated 2018).

One experiment deals with Karpas-299 cell line. Kind of experiment: CellTiter-Glo cell proliferation inhibition on Karpas-299 cell line. The class given is cell-based. To be noted: Homo sapiens, 96 h, Karpas-299 cells, 5000 cells/well, 4 days drug treatment. The procedure: 4. Cell Proliferation Inhibitory Activities of the Compounds of the Present Invention on Karpas-299 Cell Line
? experimental method ? CellTiter-Glo® Luminescent Cell Viability Assay kit from Promega company was used to detect cell proliferation inhibitory activities of the compounds on Karpas-299 cell line.
? instrument ? Envision 2104 plate reader from PerKinElmer company; Vi-Cell XR cell counter from Beckman Counter company; MCO-18AIC CO2 incubator from SANYO company.
? experiment material ? CellTiter-Glo® Luminescent Cell Viability Assay Kit (Promega company, catalog No. G7573); Karpas-299 cell line (DSMZ, catalog No. ACC31); RPMI-1640 medium (HyClone company, catalog No. SH30809.01B); fetal bovine serum (FBS) (Gibco company, catalog No. 10099-141); PBS (HyClone company, catalog No. SH30256.01B); 96 wells cell culture plate (Corning company, catalog No. 3610); DMSO (AMRESCO company, catalog No. 0231); 96 wells plates (for diluting compounds) (CITOTEST company, catalog No. Ref36020096D);
? experimental condition ? Karpas-299 cells in exponential growth phase were collected and viable cells were counted by Vi-Cell XR cell counter. Cell suspension was adjusted to 62500 cells/ml with culture medium (RPMI-1640+10% FBS). 80 μl cell suspension was added into each well of 96 wells cell culture plate so that so that the final cell number of Karpas-299 cells was 5000 cells/well. The cells were cultivated in an incubator with an atmosphere of 37° C., 5% CO2 and 95% humidity for 2 hours and then each well was added with 20 μl compounds in RPMI-1640 medium solution (the final concentration of DMSO was 0.5%). 4 days after drug treatment, each well was added with 50 μl CellTiter-Glo solution which was previously thawed and equilibrated to room temperature, and mixed for 2 minutes with microplate shaker. After placing at room temperature for 10 minutes, luminescence reading value was measured with PerkinElmer Envision 2104 plate reader and the data was analyzed.
? tested samples ? Compounds of the examples.
Luminescence value of DMSO solvent control (Vvehicle control, which is the mean luminescence value from DMSO solvent control group)
Tested luminescence value (Vsample, which is the luminescence value from given concentration of compounds group) Inhibition rate (%)=(1−Vsample/Vvehicle control)×100
? data processing ? IC50 of compounds was calculated by using XLfit program in Excel.

Another experiment relates to NCI-H2228 cell line. Description: CellTiter-Glo cell proliferation inhibition on NCI-H2228 cell line. The class given is cell-based. The settings on record: Homo sapiens, NCI-H2228, 96 h, NCI-H2228 cells, 5000 cells/well, 4 days drug treatment. In short, it runs like this: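 NCI-H2228 cells, 5000/well in RPMI-1640 + 10% FBS, treated with compounds 2 h after seeding (0.5% DMSO final) for 4 days at 37° C. Viability by CellTiter-Glo luminescence; inhibition relative to DMSO control, IC50 from curve fit.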
(ATP-based viability assays read luminescence as a measure of living cells.)

For the compound `Cc1cc(Nc2ncc(Cl)c(Nc3cn(C)nc3S(=O)(=O)C(C)C)n2)c(OC(C)C)cc1C1CNC1` [Final product 4], the concentration for half-maximal inhibition (IC50) was 0.06 µM in the experiment with Karpas-299 cell line and 0.288 µM with NCI-H2228 cell line.
In the same order, the values of `Cc1cc(Nc2ncc(Cl)c(Nc3cn(C4CC4)nc3S(=O)(=O)C(C)C)n2)c(OC(C)C)cc1C1CCNCC1` [Final product 5] are 0.037 µM and 0.248 µM.
In the same order, the values of `Cc1cc(Nc2ncc(Cl)c(Nc3cn(C)nc3S(=O)(=O)CC(C)C)n2)c(OC(C)C)cc1C1CCNCC1` [Final product 6] are 0.024 µM and 0.193 µM.
For the compound `CCC(C)S(=O)(=O)c1nn(C)cc1Nc1nc(Nc2cc(C)c(C3CCNCC3)cc2OC(C)C)ncc1Cl` (centres unmarked) [Final product 7], the values for the IC50 with Karpas-299 cell line and in the experiment on NCI-H2228 cell line were 0.021 µM and 0.224 µM, respectively.
The matching figures for `Cc1cc(Nc2ncc(Cl)c(Nc3cn(C)nc3S(=O)(=O)C(C)C)n2)c(OC(CF)CF)cc1C1CCNCC1` [Final product 8]: 0.067 µM and 0.562 µM.
In the same order, the values of `CC(C)S(=O)(=O)c1nn(C)cc1Nc1nc(Nc2ccc(C3CCNCC3)cc2OC(F)(F)F)ncc1Cl` [Final product 9] are 0.119 µM and 0.652 µM.
With `Cc1cc(Nc2ncc(Cl)c(Nc3cn(C)nc3S(=O)(=O)C(C)C)n2)c(OC(F)(F)F)cc1C1CCNCC1` [Final product 10], the IC50 in the experiment with Karpas-299 cell line worked out at 0.02 µM; with NCI-H2228 cell line, 0.188 µM.
Regarding `Cc1cc(Nc2ncc(Cl)c(Nc3cn(C)nc3S(=O)(=O)C(C)C)n2)c(C(F)(F)F)cc1C1CCNCC1` [Final product 11], the IC50 was found to be 0.061 µM in the experiment on Karpas-299 cell line and 0.641 µM with NCI-H2228 cell line.
In the case of `Cc1cc(Nc2ncc(Cl)c(Nc3cn(C)nc3S(=O)(=O)C(C)C)n2)c(OCC2CC2)cc1C1CCNCC1` [Final product 12], the results for the IC50 in the experiment with Karpas-299 cell line and with NCI-H2228 cell line were 0.043 µM and 0.262 µM, respectively.
As for `CC(C)S(=O)(=O)c1nn(C)cc1Nc1nc(Nc2ccc(C3CCNCC3)cc2OC2CC2)ncc1Cl` [Final product 13], the 50% inhibitory concentration (IC50) with Karpas-299 cell line came out at 0.007 µM; in the experiment on NCI-H2228 cell line, 0.058 µM.
In the same order, the values of `CC(C)S(=O)(=O)c1nn(C)cc1Nc1nc(Nc2ccc(C3=CCNCC3)cc2OC2CC2)ncc1Cl` [Final product 14] are 0.019 µM and 0.168 µM.
In the same order, the values of `CC(C)S(=O)(=O)c1nn(C)cc1Nc1nc(Nc2ccc(C3CCNC3)cc2OC2CC2)ncc1Cl` (centres unmarked) [Final product 15] are 0.009 µM and 0.048 µM.
Turning to `CC(C)S(=O)(=O)c1nn(C2CC2)cc1Nc1nc(Nc2ccc(C3CCNCC3)cc2OC2CC2)ncc1Cl` [Final product 16], the 50% inhibitory concentration (IC50) in the experiment with Karpas-299 cell line came to 0.008 µM; in the experiment with NCI-H2228 cell line, 0.039 µM.
In the same order, the values of `CC(C)CS(=O)(=O)c1nn(C)cc1Nc1nc(Nc2ccc(C3CCNCC3)cc2OC2CC2)ncc1Cl` [Final product 17] are 0.036 µM and 0.278 µM.
In the same order, the values of `CC(C)CS(=O)(=O)c1nn(C)cc1Nc1nc(Nc2ccc(C3CCNC3)cc2OC2CC2)ncc1Cl` (centres unmarked) [Final product 18] are 0.028 µM and 0.157 µM.
As for `CC(C)S(=O)(=O)c1nn(C)cc1Nc1nc(Nc2cc(F)c(C3CCNC3)cc2OC2CC2)ncc1Cl` (centres unmarked) [Final product 20], the IC50 in the experiment on Karpas-299 cell line came out at 0.056 µM; with NCI-H2228 cell line it was 0.384 µM.
As for `CC(C)S(=O)(=O)c1nn(C2CC2)cc1Nc1nc(Nc2cc(F)c(C3CCNCC3)cc2OC2CC2)ncc1Cl` [Final product 21], the IC50 in the experiment on Karpas-299 cell line is 0.01 µM; with NCI-H2228 cell line, 0.062 µM.
The matching figures for `CC(C)S(=O)(=O)c1nn(C)cc1Nc1nc(Nc2cc(Cl)c(C3CCNCC3)cc2OC2CC2)ncc1Cl` [Final product 22]: 0.014 µM and 0.115 µM.
For `CC(C)S(=O)(=O)c1nn(C2CC2)cc1Nc1nc(Nc2cc(Cl)c(C3CCNCC3)cc2OC2CC2)ncc1Cl` [Final product 23], the IC50 worked out at 0.038 µM in the experiment on Karpas-299 cell line and 0.107 µM with NCI-H2228 cell line.
On to `Cc1cc(Nc2ncc(Cl)c(Nc3cn(C)nc3S(=O)(=O)C(C)C)n2)c(OC2CC2)cc1C1CCNCC1` [Final product 24], for which the IC50 was 0.009 µM in the experiment on Karpas-299 cell line and 0.122 µM in the experiment with NCI-H2228 cell line.
The matching figures for `Cc1cc(Nc2ncc(Cl)c(Nc3cn(C)nc3S(=O)(=O)C(C)C)n2)c(OC2CC2)cc1C1=CCNCC1` [Final product 25]: 0.012 µM and 0.19 µM.
Turning to `Cc1cc(Nc2ncc(Cl)c(Nc3cn(C)nc3S(=O)(=O)C(C)C)n2)c(OC2CC2)cc1C1CCNC1` (centres unmarked) [Final product 26], the IC50 in the experiment on Karpas-299 cell line is 0.016 µM; with NCI-H2228 cell line it was 0.217 µM.
The matching figures for `Cc1cc(Nc2ncc(Cl)c(Nc3cn(C4CC4)nc3S(=O)(=O)C(C)C)n2)c(OC2CC2)cc1C1CCNCC1` [Final product 27]: 0.019 µM and 0.168 µM.
In the same order, the values of `Cc1cc(Nc2ncc(Cl)c(Nc3cn(C)nc3S(=O)(=O)CC(C)C)n2)c(OC2CC2)cc1C1CCNCC1` [Final product 28] are 0.019 µM and 0.134 µM.
For the compound `CC(C)S(=O)(=O)c1nn(C)cc1Nc1nc(Nc2cc(C#N)c(C3CCNCC3)cc2OC2CC2)ncc1Cl` [Final product 29], the values for the IC50 in the experiment with Karpas-299 cell line and in the experiment on NCI-H2228 cell line were 0.035 µM and 0.159 µM, respectively.
The matching figures for `CC(C)S(=O)(=O)c1nn(C)cc1Nc1nc(Nc2ccc(C3CCN(C)CC3)cc2OC(F)(F)F)ncc1Cl` [Final product 30]: 0.025 µM and 0.093 µM.
With `Cc1cc(Nc2ncc(Cl)c(Nc3cn(C)nc3S(=O)(=O)C(C)C)n2)c(OC(F)(F)F)cc1C1CCN(C)CC1` [Final product 31], the IC50 is 0.02 µM in the experiment on Karpas-299 cell line and 0.374 µM with NCI-H2228 cell line.
In the same order, the values of `Cc1cc(Nc2ncc(Cl)c(Nc3cn(C)nc3S(=O)(=O)C(C)C)n2)c(C(F)(F)F)cc1C1CCN(C)CC1` [Final product 32] are 0.074 µM and 1.08 µM.
The matching figures for `Cc1cc(Nc2ncc(Cl)c(Nc3cn(C)nc3S(=O)(=O)C(C)C)n2)c(OC(CF)CF)cc1C1CCN(C)CC1` [Final product 34]: 0.062 µM and 0.403 µM.
With `Cc1cc(Nc2ncc(Cl)c(Nc3cn(C)nc3S(=O)(=O)CC(C)C)n2)c(OC(C)C)cc1C1CN(C)C1` [Final product 36], the figures for the IC50 in the experiment on Karpas-299 cell line and in the experiment on NCI-H2228 cell line were 0.062 µM and 0.326 µM, respectively.
In the case of `Cc1cc(Nc2ncc(Cl)c(Nc3cn(C)nc3S(=O)(=O)C(C)C)n2)c(OC(C)C)cc1C1CCN(C)C1` (centres unmarked) [Final product 37], the concentration for half-maximal inhibition (IC50) in the experiment with Karpas-299 cell line came to 0.011 µM; in the experiment on NCI-H2228 cell line it was 0.131 µM.
`CC(C)S(=O)(=O)c1nn(C2CC2)cc1Nc1nc(Nc2ccc(C3CCN(C)CC3)cc2OC(F)(F)F)ncc1Cl` [Final product 38]: the figures for the IC50 in the experiment with Karpas-299 cell line and in the experiment on NCI-H2228 cell line were 0.022 µM and 0.146 µM, respectively.
The matching figures for `Cc1cc(Nc2ncc(Cl)c(Nc3cn(C)nc3S(=O)(=O)C(C)C)n2)c(OCC2CC2)cc1C1CCN(C)CC1` [Final product 39]: 0.074 µM and 0.226 µM.
The matching figures for `CC(C)S(=O)(=O)c1nn(C)cc1Nc1nc(Nc2ccc(C3CCN(C)CC3)cc2OC2CC2)ncc1Cl` [Final product 40]: 0.007 µM and 0.036 µM.
As for `CC(C)S(=O)(=O)c1nn(C)cc1Nc1nc(Nc2ccc(C3CCN(C)C3)cc2OC2CC2)ncc1Cl` (centres unmarked) [Final product 41], the results for the IC50 with Karpas-299 cell line and in the experiment on NCI-H2228 cell line were 0.004 µM and 0.033 µM, respectively.
Regarding `CC(C)S(=O)(=O)c1nn(C2CC2)cc1Nc1nc(Nc2cc(F)c(C3CCN(C)CC3)cc2OC2CC2)ncc1Cl` [Final product 46], the concentration for half-maximal inhibition (IC50) in the experiment on NCI-H2228 cell line is 0.127 µM.

As a reminder, the IC50 is the concentration needed to halve the response being measured.
